# Assay results published in patent publication US20220062228A1, “USE OF CARNOSOL FOR INCREASING MUSCLE PROTEIN SYNTHESIS” (Centre National De La Recherche Scientifique, priority 2018, published 2022).
# Where a name gives a salt, the structure may show the parent alone.
# Assays:
# [1] = test system: human myotubes; experiment: culture cell model of human skeletal muscle satellite cells: area of myotubes (troponin T immunofluorescence, Image J); assay type: cell-based; conditions: for hypertrophic activity on myotubes, carnosol compared with carnosic acid: 1 μg/ml and 5 μg/ml, FIG. 9; for hypertrophic activity on myotubes, comparison with antioxidant compounds: FIG. 8; for hypertrophic activity on myotubes (area of myotubes) / concentration from which hypertrophic activity is exhibited: myotubes from young human subjects; for hypertrophic activity on myotubes (area of myotubes): 5 μg/ml, FIG. 3; for concentration from which hypertrophic activity is exhibited: FIG. 4
# Source text: (§1) In order to assay the hypertrophic effect on muscle of compounds from vegetal extracts, the inventors have designed a culture cell model of human skeletal muscle satellite cells. The skeletal muscle satellite cells are able to proliferate and to differentiate ex vivo. When cultured in a growth factors rich medium, the skeletal muscle satellite cells proliferate in the form of myoblasts. At confluence, the myoblasts morphologically differentiate by fusing thereby producing long multinucleated cells (myotubes or myofibers) which express muscular protein. Myotubes are able to respond to hypertrophic and atrophic signals by modulating the balance between the protein synthesis (hypertrophy) or the protein degradation (atrophy) (El Haddad M. et al., Cell Mol Life Sci. 2017 May; 74(10):1923-1936).
# The recovered skeletal muscle satellite cells used in the culture cell model by the inventors were recovered from a muscular biopsy of young and elderly subjects.
# The satellite cells can be easily recovered from a muscle biopsy and cultured ex vivo in dishes where they proliferate as myoblasts and differentiate into myotubes. The biopsy is treated according to an experimental protocol described and validated by us for human skeletal muscle from quadriceps (Kitzmann et al., 2006; El Haddad et al 2017). The biopsy is cut into a fragment of 1 mm^3 and placed in a culture dish treated with type 1 collagen. The explants are trapped inside in a thin layer of Matrigel (BD Matrigel Matrix, BD Biosciences) in 35 mm-collagen coated Petri dishes with growth media (DMEM/F12, supplemented with 10% fetal bovine serum, 0.1% Ultroser G, 1 ng/ml basic FGF, and 10 microg/mL gentamicin). After 6 to 8 days, when cells migrate out of the explants, they are enzymatically harvested using dispase (BD Biosciences) and subcultured in growth medium. Harvested cells are purified by immunomagnetic cell sorting using magnetic activated cell sorter (MACS) microbeads (MiltenyiBiotec) coupled to an antibody against CD56. Usually in protocols of muscle culture cells, muscle differentiation is induced by growing confluent myoblasts in differentiation medium depleted of growth factors. At confluence, myoblasts start to differentiate and differentiation can be evidenced 1) morphologically (after 2 to 4 days), as the fusion of myoblasts generates long giant multinucleated cells (named myotubes) and 2) biochemically, as myotubes express proteins required for muscle contraction. Differentiation is assessed by immunofluorescence using the antibodies against Troponin T and Myogenin, two markers of muscle differentiation. The differentiation status is also confirmed by precisely measuring the expression of three differentiation markers (Myogenin, Sarcomeric Actin and Caveolin by RT-qPCR). Expression of RPLP0 is also quantified as internal control.
# Briefly, myoblasts are seeded at 10^5 cells/dish onto 35 mm collagen-coated dishes and cultured in growth medium (DMEM/F12, supplemented with 10% fetal bovine serum, 0.1% Ultroser G, 1 ng/ml basic FGF, and 10 microg/ml gentamicin). Myogenic differentiation of confluent cells was induced after 3 days by changing to DMEM containing 5% FBS (differentiation medium). Cells were kept in differentiation medium for 3 to 4 days.
# Then the cells are fixed and the expression of troponin T (a protein of the cytoskeleton which is exclusively expressed by myotubes) is analysed by immuno-fluorescence. Then the area of myotubes is measured using the Image J software. If the area increases the compound has a hypertrophic activity and if the area decreases the compound has an atrophic activity.
# The skeletal muscle satellite cells came from young people (aged under 30).
# [2] = test system: NRF2 pathway; experiment: induction of the NRF2 pathway (NRF2, HO-1) in skeletal muscle cells; assay type: cell-based; conditions: for NRF2 accumulation / full activation of NRF2 pathway by inducing HO-1: skeletal muscle, 6 μM
# Source text: The regulation of Nrf2 signaling is believed to preserve redox homeostasis and protect the structure and function of skeletal muscle. Nrf2 is a transcription factor, inactivated by Keap-1 in the cytoplasm. Upon activation, Keap1 is degraded, and NRF2 mediates intracellular antioxidant response by binding to the antioxidant response element (ARE) in the promoter of its target genes and induces the expression of a set of antioxidant enzymes, called ‘phase 2 enzymes,’ including heme oxygenase-1 (HO-1). Recently it has been shown that Nrf2 deficiency caused accelerated aging and muscle loss during aging.
# Since carnosic acid and carnosol are antioxidants molecules and can activate the NRF2 pathway in several type of cells, it was studied whether carnosic acid and carnosol are capable of inducing NRF2 pathway in skeletal muscle.
# In order to know whether NRF2 pathway activation is sufficient to activate hypertrophy in skeletal muscle cells. An assay with DMF (dimethyl Fumarate) has been carried out. Given DMF is a NRF2 activator, if the NRF2 pathway activation is sufficient to activate hypertrophy in skeletal muscle cells then DMF should induce myotube hypertrophy.
# [3] = test system: MuRF1; experiment: western blot of MuRF1 in myotubes / skeletal muscle cells; assay type: cell-based, human
# Source text: The muscle protein degradation may be measured by assaying the level of expression of an ubiquitin ligases such as muscle RING-finger protein-1 (MuRF1).
# [4] = test system: MURF1 protein; experiment: western blot analysis on muscle extract for MURF1 protein; assay type: in vivo; conditions: adult C57 BL6 J mice, daily oral dose of 80 mg/Kg for 12 days; FIG. 7
# Experimental: (§2) Hypertrophic Activity of Carnosol In Vivo To investigate whether carnosol can alter skeletal muscle physiology, adult mice (13 weeks old, C57 BL6 J) were treated for 12 days with a daily oral dose of 80 mg/Kg. […] The determination of the fibre areas (CSA) was made using the Myovision software.
# Then, a western blot analysis on muscle extract was performed to determine the impact of a carnosol treatment on MURF1 protein.
# [5] = test system: protein synthesis in myotubes; experiment: SUnSET puromycin incorporation western blot (protein synthesis) in the culture cell model; assay type: cell-based, human; conditions: myotubes stimulated with carnosol, puromycin 30 minutes before recovery; FIG. 13
# Experimental: The synthesis of muscle protein may be measured in vitro by the method disclosed in Schmidt et al., SUnSET, a nonradioactive method to monitor protein synthesis, Nat Methods. 2009 April; 6(4):275-7. Muscle cells were treated with puromycin, 30 minutes before recovering the protein from the cells. Then, a western blot is carried out with anti-puromycin antibodies in order to show the translation rate of the mRNA in the living cells.
# The muscular hypertrophic activity of carnosol may result from a global increase of the synthesis of proteins. To study this hypothesis, the culture cell model disclosed above was stimulated with carnosol. Then, 30 minutes before recovering the protein from the cells, the cells were treated with puromycin. The puromycin is incorporated in the neo-synthetized proteins. Then, a western blot was carried out with anti-puromycin antibodies in order to show the translation rate of the mRNA in the living cells (Schmidt et al., SUnSET, a nonradioactive method to monitor protein synthesis. Nat Methods. 2009; 6:275-277) (see FIG. 13).
# [6] = test system: myotube cells from elderly subject; experiment: culture cell model with skeletal muscle satellite cells recovered from elderly subjects: area of myotubes; assay type: cell-based, human; conditions: elderly subjects 1 and 2; carnosol 2 μg/ml; FIG. 5
# Source text: as §1, with “74(10):1923-1936). […]” for “74(10):1923-1936).”
# The satellite cells can be easily recovered from a muscle biopsy and cultured ex vivo in dishes where they proliferate as myoblasts and differentiate into myotubes. […] Differentiation is assessed by immunofluorescence using the antibodies against Troponin T and Myogenin, two markers of muscle differentiation. […] Expression of RPLP0 is also quantified as internal control. […]
# Then the cells are fixed and the expression of troponin T (a protein of the cytoskeleton which is exclusively expressed by myotubes) is analysed by immuno-fluorescence. Then the area of myotubes is measured using the Image J software. […]
# [7] = test system: mTOR pathway; experiment: western blot of signaling pathways controlling muscle hypertrophy in myotubes; assay type: cell-based, human; conditions: FIG. 14
# Source text: Two main pathways control the regeneration of contractile proteins: • PI3K/Akt/mTOR which is the major pathway of muscle hypertrophy and • pathway of the transcription factors of FOXO family which controls the expression of the genes involved in the proteasome degradation systems and the autophagy (respectively atrogenes and genes of the autophagy).
# At the molecular level, it has been established that the activation of the PI3K/Akt/mTOR pathway stimulates the protein synthesis through their anabolizing targets (mTOR, protein S6 kinase 1 (S6K) and the eIF4E-binding proteins (4E-BP) and blocks the ubiquitine E3 of the family of atrogenes MuRF1 and MAFbx mediated proteolysis pathway (FOXO) (Egerman and Glass, Signaling pathways controlling skeletal muscle mass. Crit Rev Biochem Mol Biol. 2014 January-February; 49(1):59-68).
# [8] = test system: gastrocnemius muscle; experiment: fibre areas (CSA) of gastrocnemius muscle sections, anti-dystrophin staining, Myovision; assay type: in vivo; conditions: adult C57 BL6 J mice, daily oral dose of 80 mg/Kg for 12 days; FIG. 6
# Experimental: as §2
compound,measurement,setting,value
"COC(=O)/C=C/C(=O)OC [DMF, dimethyl Fumarate, reference compound]",myotube hypertrophy,"[1]; 50 μM, FIG. 15",does not induce repression of MURF1 protein and myotube hypertrophy
same,dose from which the NRF2 pathway is induced,[2]; skeletal muscle cells,> 20 µM
same,induction of the NRF2 pathway (NRF2 and HO-1),[2]; skeletal muscle cells,induces the NRF2 pathway
same,repression of MURF1 protein,"[3]; skeletal muscle cells, DMF treatment versus carnosol treatment",does not induce repression of MURF1 protein
"CC(C)c1cc2c(c(O)c1O)[C@@]1(C(=O)O)CCCC(C)(C)[C@@H]1CC2 [carnosic acid, reference compound]","hypertrophic activity on myotubes, carnosol compared with carnosic acid",[1],the hypertrophic activity of carnosol is significantly higher than the one of carnosic acid
same,"hypertrophic activity on myotubes, comparison with antioxidant compounds",[1]; 2 μg/ml,only carnosol has a significant hypertrophic activity
same,NRF2 accumulation,[2],both induce NRF2 accumulation
same,full activation of NRF2 pathway by inducing HO-1,[2],only carnosol fully activates NRF2 pathway by inducing HO-1
"CC(C)c1cc2c(c(O)c1O)[C@@]13CCCC(C)(C)[C@@H]1C[C@@H]2OC3=O [carnosol, Carnosol]",MURF1 protein level in gastrocnemius,[4],down-regulates MURF1 protein level
same,synthesis of protein in muscle cells (puromycin incorporation),[5],stimulates the synthesis of protein in muscle cells
same,hypertrophic activity on myotube cells of elderly subjects,[6],has also a hypertrophic activity
same,"hypertrophic activity on myotubes, carnosol compared with carnosic acid",[1],the hypertrophic activity of carnosol is significantly higher than the one of carnosic acid
same,"hypertrophic activity on myotubes, comparison with antioxidant compounds",[1]; 2 μg/ml,only carnosol has a significant hypertrophic activity
same,myotube hypertrophy,"[1]; human myotubes treated 48 hours, 1 μg/ml, FIGS. 10-12",only carnosol treatment induced myotube hypertrophy
same,hypertrophic activity on myotubes (area of myotubes),[1]; listed as commercially available carnosol,same hypertrophic activity as the fraction C
same,hypertrophic activity on myotubes (area of myotubes),[1]; listed as fraction C,active compound was isolated in the fraction C
same,concentration from which hypertrophic activity is exhibited,[1]; conversion of 0.5 μg/ml,1 to 2 µM
same,concentration from which hypertrophic activity is exhibited,[1]; tested 0.25-5 μg/ml,≥ 0.5 µg/mL
same,dose from which the NRF2 pathway is induced,[2]; skeletal muscle cells,≥ 3 µM
same,NRF2 accumulation,[2],both induce NRF2 accumulation
same,full activation of NRF2 pathway by inducing HO-1,[2],only carnosol fully activates NRF2 pathway by inducing HO-1
same,phosphorylation rate of 4EBP1 (p-4EBP1/4EPB1),[7],increasing the phosphorylation rate
same,phosphorylation rate of P70 S6 kinase (p-S6K/S6K),[7],increasing the phosphorylation rate
same,phosphorylation rate of PS6 (p-S6/S6),[7],increasing the phosphorylation rate
same,"diameter of the fibers (fibre area, CSA) of the gastrocnemius",[8],significantly increases the diameter of the fibers
same,MuRF1 expression (degradation of proteins),"[3]; myotubes, western blot, FIG. 14",inhibits strongly the MuRF1 expression
"CC(C)C[C@H](N)C(=O)O [leucine, reference compound]",myotube hypertrophy,"[1]; human myotubes treated 48 hours, 5 mM, FIG. 10",only carnosol treatment induced myotube hypertrophy
"O=C(/C=C/c1ccc(O)c(O)c1)O[C@H](Cc1ccc(O)c(O)c1)C(=O)O [rosmarinic acid, reference compound]","hypertrophic activity on myotubes, comparison with antioxidant compounds",[1]; 2 μg/ml,only carnosol has a significant hypertrophic activity
"C[C@H]1[C@H](C)CC[C@]2(C(=O)O)CC[C@]3(C)C(=CC[C@@H]4[C@@]5(C)CC[C@H](O)C(C)(C)[C@@H]5CC[C@]43C)[C@H]12 [ursolic acid, reference compound]","hypertrophic activity on myotubes, comparison with antioxidant compounds",[1]; 2 μg/ml,only carnosol has a significant hypertrophic activity
"O=C1O[C@H]([C@@H](O)CO)C(O)=C1O [vitamin C, ascorbic acid, reference compound]","hypertrophic activity on myotubes, comparison with antioxidant compounds",[1]; 50 μg/ml,only carnosol has a significant hypertrophic activity
"CC(C)(O)CC(=O)O [β-hydroxy-β-methylbutyrate, reference compound]",myotube hypertrophy,"[1]; human myotubes treated 48 hours, 25 μM and 100 μM, FIG. 11",only carnosol treatment induced myotube hypertrophy
vitamin D [reference compound],myotube hypertrophy,"[1]; human myotubes treated 48 hours, 10^−7M, FIG. 12",Only carnosol induced myotube hypertrophy
